Results: the supplement of paper PMC7214452
Where a name gives a salt, the structure may show the parent alone.

Key:
Test in all cases: normalized area under the dose-response curve (viability relative to DMSO control) (fraction); higher = less sensitive (more viable cells)
Settings in all cases: exposure time not given
[1] = tested on: OCI-MY7 (cancer type: MM)
Description: (§1)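 25 myeloma and 15 non-Hodgkin lymphoma cell lines were exposed to each of 76 drugs as 7-point log dilutions (0.01 nM–10 µM) in duplicate. Viability was read with CellTiter-Glo and normalised to DMSO (0.1%) and staurosporine (10 µM) plate controls. Normalised AUC was calculated by the trapezoidal method relative to the negative control.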

SKMM2 (cancer type: MM) = tested on: SKMM2 (cancer type: MM)
Description: as §1

[2] = tested on: KMS28BM (cancer type: MM)
Description: as §1

[3] = tested on: SU-DHL2 (cancer type: DLBCL)
Description: as §1

AMO1 (cancer type: MM) = tested on: AMO1 (cancer type: MM)
Description: as §1

L363 (cancer type: MM) = tested on: L363 (cancer type: MM)
Description: as §1

[4] = tested on: OCI-MY5 (cancer type: MM)
Description: as §1

[5] = tested on: OCI-MY5/CRBN (cancer type: MM)
Description: as §1

MM1.S (cancer type: MM) = tested on: MM1.S (cancer type: MM)
Description: as §1

[6] = tested on: SU-DHL1 (cancer type: TCL)
Description: as §1

KMS34 (cancer type: MM) = tested on: KMS34 (cancer type: MM)
Description: as §1

[7] = tested on: RPMI 8226 (cancer type: MM)
Description: as §1

KMS11 (cancer type: MM) = tested on: KMS11 (cancer type: MM)
Description: as §1

[8] = tested on: NCI-H929 (cancer type: MM)
Description: as §1

U266 (cancer type: MM) = tested on: U266 (cancer type: MM)
Description: as §1

[9] = tested on: KMS28PE (cancer type: MM)
Description: as §1

[10] = tested on: JeKo-1 (cancer type: Mantle)
Description: as §1

FR4 (cancer type: MM) = tested on: FR4 (cancer type: MM)
Description: as §1

[11] = tested on: SR-786 (cancer type: TCL)
Description: as §1

EJM (cancer type: MM) = tested on: EJM (cancer type: MM)
Description: as §1

[12] = tested on: SU-DHL6 (cancer type: DLBCL)
Description: as §1

[13] = tested on: OCI-MY5/Vec (cancer type: MM)
Description: as §1

JJN3 (cancer type: MM) = tested on: JJN3 (cancer type: MM)
Description: as §1

[14] = tested on: OCI-LY1 (cancer type: DLBCL)
Description: as §1

MM1.R (cancer type: MM) = tested on: MM1.R (cancer type: MM)
Description: as §1

[15] = tested on: OCI-LY3 (cancer type: DLBCL)
Description: as §1

KMS18 (cancer type: MM) = tested on: KMS18 (cancer type: MM)
Description: as §1

[16] = tested on: JVM2 (cancer type: Mantle)
Description: as §1

XG2 (cancer type: MM) = tested on: XG2 (cancer type: MM)
Description: as §1

My-La (cancer type: TCL) = tested on: My-La (cancer type: TCL)
Description: as §1

[17] = tested on: KMS12PE (cancer type: MM)
Description: as §1

[18] = tested on: Mino (cancer type: Mantle)
Description: as §1

LP1 (cancer type: MM) = tested on: LP1 (cancer type: MM)
Description: as §1

[19] = tested on: OCI-LY19 (cancer type: DLBCL)
Description: as §1

[20] = tested on: Karpas-299 (cancer type: TCL)
Description: as §1

KMS26 (cancer type: MM) = tested on: KMS26 (cancer type: MM)
Description: as §1

Se-Ax (cancer type: TCL) = tested on: Se-Ax (cancer type: TCL)
Description: as §1

OPM2 (cancer type: MM) = tested on: OPM2 (cancer type: MM)
Description: as §1

[21] = tested on: Granta-519 (cancer type: Mantle)
Description: as §1

[22] = tested on: HuT 78 (cancer type: TCL)
Description: as §1

| Compound | normalized area under the dose-response curve [1] | normalized area under the dose-response curve (SKMM2 (cancer type: MM)) | normalized area under the dose-response curve [2] | normalized area under the dose-response curve [3] | normalized area under the dose-response curve (AMO1 (cancer type: MM)) | normalized area under the dose-response curve (L363 (cancer type: MM)) | normalized area under the dose-response curve [4] | normalized area under the dose-response curve [5] | normalized area under the dose-response curve (MM1.S (cancer type: MM)) | normalized area under the dose-response curve [6] | normalized area under the dose-response curve (KMS34 (cancer type: MM)) | normalized area under the dose-response curve [7] | normalized area under the dose-response curve (KMS11 (cancer type: MM)) | normalized area under the dose-response curve [8] | normalized area under the dose-response curve (U266 (cancer type: MM)) | normalized area under the dose-response curve [9] | normalized area under the dose-response curve [10] | normalized area under the dose-response curve (FR4 (cancer type: MM)) | normalized area under the dose-response curve [11] | normalized area under the dose-response curve (EJM (cancer type: MM)) | normalized area under the dose-response curve [12] | normalized area under the dose-response curve [13] | normalized area under the dose-response curve (JJN3 (cancer type: MM)) | normalized area under the dose-response curve [14] | normalized area under the dose-response curve (MM1.R (cancer type: MM)) | normalized area under the dose-response curve [15] | normalized area under the dose-response curve (KMS18 (cancer type: MM)) | normalized area under the dose-response curve [16] | normalized area under the dose-response curve (XG2 (cancer type: MM)) | normalized area under the dose-response curve (My-La (cancer type: TCL)) | normalized area under the dose-response curve [17] | normalized area under the dose-response curve [18] | normalized area under the dose-response curve (LP1 (cancer type: MM)) | normalized area under the dose-response curve [19] | normalized area under the dose-response curve [20] | normalized area under the dose-response curve (KMS26 (cancer type: MM)) | normalized area under the dose-response curve (Se-Ax (cancer type: TCL)) | normalized area under the dose-response curve (OPM2 (cancer type: MM)) | normalized area under the dose-response curve [21] | normalized area under the dose-response curve [22] |
| --- | --- | --- | --- | --- | --- | --- | --- | --- | --- | --- | --- | --- | --- | --- | --- | --- | --- | --- | --- | --- | --- | --- | --- | --- | --- | --- | --- | --- | --- | --- | --- | --- | --- | --- | --- | --- | --- | --- | --- | --- |
| Nc1nc(Cl)nc2c1ncn2[C@H]1C[C@H](O)[C@@H](CO)O1 [Cladribine] | 0.79 | 0.763 | 0.768 | 0.861 | 0.672 | 0.826 | 0.929 | 0.961 | 0.49 | 0.167 | 0.734 | 0.939 | 0.854 | 0.52 | 0.918 | 0.533 | 0.185 | 1.01 | 0.766 | 0.555 | 0.843 | 0.89 | 0.993 | 0.884 | 0.56 | 0.311 | 0.798 | 0.748 | 0.452 | 0.813 | 0.84 | 0.27 | 0.762 | 0.919 | 0.89 | 0.795 | 0.627 | 0.984 | 0.523 | 0.825 |
| Nc1nc(Cl)nc2c1ncn2[C@@H]1O[C@H](CO)[C@@H](O)[C@@H]1F [Clofarabine] | 0.74 | 0.728 | 0.617 | 0.662 | 0.489 | 0.667 | 0.915 | 0.927 | 0.36 | 0.236 | 0.536 | 0.727 | 0.578 | 0.43 | 0.595 | 0.422 | 0.138 | 0.973 | 0.851 | 0.477 | 0.573 | 0.807 | 0.559 | 0.5 | 0.45 | 0.119 | 0.794 | 0.594 | 0.346 | 0.685 | 0.66 | 0.274 | 0.686 | 0.472 | 0.759 | 0.592 | 0.451 | 0.871 | 0.35 | 0.727 |
| O=C(c1ccc(F)c(F)c1Nc1ccc(I)cc1F)N1CC(O)([C@@H]2CCCCN2)C1 [Cobimetinib] | 0.68 | 0.813 | 0.731 | 0.873 | 0.392 | 0.556 | 0.587 | 0.822 | 0.69 | 0.383 | 0.494 | 0.736 | 0.722 | 0.6 | 0.767 | 0.608 | 0.878 | 0.696 | 0.808 | 0.54 | 0.83 | 0.843 | 0.742 | 0.996 | 0.65 | 0.9 | 0.588 | 0.724 | 0.501 | 0.857 | 0.75 | 0.887 | 0.634 | 0.923 | 0.842 | 0.766 | 0.538 | 0.629 | 0.888 | 0.807 |
| CC1(COc2ccc3c(c2)ncn3-c2ccc3cccc(N4CCC(N)CC4)c3n2)COC1 [Crenolanib] | 0.53 | 0.663 | 0.46 | 0.949 | 0.325 | 0.459 | 0.269 | 0.549 | 0.52 | 0.49 | 0.423 | 0.464 | 0.488 | 0.45 | 0.426 | 0.407 | 0.746 | 0.59 | 0.879 | 0.436 | 0.894 | 0.541 | 0.481 | 0.704 | 0.53 | 0.773 | 0.45 | 0.672 | 0.339 | 0.779 | 0.53 | 0.818 | 0.409 | 0.861 | 0.855 | 0.616 | 0.594 | 0.452 | 0.91 | 0.569 |
| C[C@@H](Oc1cc(-c2cnn(C3CCNCC3)c2)cnc1N)c1c(Cl)ccc(F)c1Cl [Crizotinib] | 0.73 | 0.487 | 0.358 | 0.833 | 0.362 | 0.447 | 0.381 | 0.75 | 0.4 | 0.0611 | 0.306 | 0.34 | 0.423 | 0.39 | 0.335 | 0.323 | 0.677 | 0.509 | 0.406 | 0.471 | 0.831 | 0.703 | 0.405 | 0.817 | 0.44 | 0.765 | 0.456 | 0.654 | 0.338 | 0.744 | 0.54 | 0.731 | 0.465 | 0.733 | 0.437 | 0.577 | 0.368 | 0.457 | 0.769 | 0.359 |
| O=P1(N(CCCl)CCCl)NCCCO1 (stereo not given) [Cyclophosphamide] | 0.92 | 0.949 | 0.923 | 0.929 | 0.884 | 0.831 | 0.913 | 0.972 | 0.9 | 0.937 | 0.791 | 0.887 | 0.822 | 0.93 | 0.862 | 0.863 | 0.915 | 0.918 | 0.911 | 0.93 | 0.969 | 0.86 | 0.95 | 0.958 | 0.88 | 0.885 | 0.944 | 0.943 | 0.878 | 0.962 | 0.91 | 0.907 | 0.977 | 0.983 | 0.931 | 0.956 | 0.865 | 0.912 | 1 | 0.928 |
| CC(C)(C)c1nc(-c2cccc(NS(=O)(=O)c3c(F)cccc3F)c2F)c(-c2ccnc(N)n2)s1 [Dabrafenib mesylate] | 0.81 | 0.827 | 0.979 | 0.889 | 0.643 | 0.787 | 0.733 | 0.906 | 0.9 | 0.833 | 0.84 | 0.851 | 0.831 | 0.78 | 0.754 | 0.85 | 0.858 | 0.939 | 0.851 | 0.775 | 0.882 | 0.858 | 0.804 | 0.984 | 0.84 | 0.89 | 0.735 | 0.587 | 0.932 | 0.908 | 0.75 | 0.775 | 0.836 | 0.861 | 0.752 | 0.972 | 0.775 | 0.829 | 0.898 | 0.812 |
| Cc1nc(Nc2ncc(C(=O)Nc3c(C)cccc3Cl)s2)cc(N2CCN(CCO)CC2)n1 [Dasatinib] | 0.82 | 0.906 | 0.994 | 0.894 | 0.72 | 0.813 | 0.701 | 0.824 | 0.75 | 0.862 | 0.612 | 0.739 | 0.686 | 0.74 | 0.616 | 0.731 | 0.778 | 0.816 | 0.843 | 0.702 | 0.754 | 0.79 | 0.581 | 0.66 | 0.76 | 0.727 | 0.765 | 0.611 | 0.746 | 0.841 | 0.48 | 0.745 | 0.712 | 0.718 | 0.875 | 0.868 | 0.82 | 0.802 | 0.783 | 0.768 |
